Reference: patent US12139472B2, “Inhibitors of advanced glycation end products” (priority 2019, dated 2024)

Assay: Pharmacokinetic study for PTG-630 (IV and PO): plasma, whole blood, tissues, urine
Format: in vivo, Sprague Dawley rats
Description: The samples were analyzed in two batches with standards and QCs prepared on rat plasma and rat urine. Analyst® 1.6 (SCIEX) software was used for statistical analysis of bioanalytical data. […] Dose samples collected at 0.083 h-6 h postdose were diluted 4 times with SD rat plasma prior to plating. Twenty-four (24) hours plasma samples were assayed without dilution. […] Two sciatic nerve samples were excluded from analysis, due to the insufficient sample size. […] The 12 non-cannulated animals were arbitrarily assigned to groups upon arrival and housed together throughout the experiment. The animals were acclimated to their designated housing for at least 24 hours before the first day of dosing. […] Blood samples were collected via cannula from IV dosed rats or by cardiac stick from PO dosed rats at the specified time points for sampling pharmacokinetics. Blood was collected into K2EDTA tubes. Tubes were mixed gently after blood collection, chilled and centrifuged at 3000 rpm, 4° C. within 30 minutes upon collection. The samples were centrifuged at 4° C. and the resultant plasma separated. […] Urine from Group 1 was collected via polycarbonate tubes from rats placed in drug metabolism cages. Urine was maintained and room temperature through the collection period.

[1] = PTG-4997 in kidneys after PTG-630 PO

Structure (SMILES): Cc1ncc(CO)c(-c2ncc[nH]2)c1O [PTG-4997]
- MRT [1]: 11.6 h
- Tmax [1]: 6 h
- half-life [1]: 2.36 h
- PTG-4997 (metabolite) concentration (Table 2, for PTG-4997 (metabolite) after PTG-630 IV 5 mg/kg, plasma, 0.083 h postdose, individual animals): <BLQ
- PTG-4997 (metabolite) concentration (Table 2, for PTG-4997 (metabolite) after PTG-630 IV 5 mg/kg, plasma, 0.5 h postdose, individual animals, 5 mg/kg): <BLQ
- PTG-4997 (metabolite) concentration (Table 2, for PTG-4997 (metabolite) after PTG-630 IV 5 mg/kg, plasma, 1 h postdose, individual animals): <BLQ
- PTG-4997 (metabolite) concentration (Table 2, for PTG-4997 (metabolite) after PTG-630 IV 5 mg/kg, plasma, 24 h postdose, individual animals): <BLQ
- PTG-4997 (metabolite) concentration (Table 2, for PTG-4997 (metabolite) after PTG-630 PO 100 mg/kg, brain, 0.5 h postdose, Mean): <BLQ
- PTG-4997 (metabolite) concentration (Table 2, for PTG-4997 (metabolite) after PTG-630 PO 100 mg/kg, brain, 0.5 h postdose, individual animals): <BLQ
- PTG-4997 (metabolite) concentration (Table 2, for PTG-4997 (metabolite) after PTG-630 PO 100 mg/kg, brain, 1 h postdose, Mean): <BLQ
- PTG-4997 (metabolite) concentration (Table 2, for PTG-4997 (metabolite) after PTG-630 PO 100 mg/kg, brain, 1 h postdose, individual animals): <BLQ
- PTG-4997 (metabolite) concentration (Table 2, for PTG-4997 (metabolite) after PTG-630 PO 100 mg/kg, brain, 2 h postdose, Mean): <BLQ
- PTG-4997 (metabolite) concentration (Table 2, for PTG-4997 (metabolite) after PTG-630 PO 100 mg/kg, brain, 2 h postdose, individual animals): <BLQ
- PTG-4997 (metabolite) concentration (Table 2, for PTG-4997 (metabolite) after PTG-630 PO 100 mg/kg, brain, 4 h postdose, Mean): <BLQ
- PTG-4997 (metabolite) concentration (Table 2, for PTG-4997 (metabolite) after PTG-630 PO 100 mg/kg, brain, 4 h postdose, individual animals): <BLQ
- PTG-4997 (metabolite) concentration (Table 2, for PTG-4997 (metabolite) after PTG-630 PO 100 mg/kg, brain, 6 h postdose, Mean): <BLQ
- PTG-4997 (metabolite) concentration (Table 2, for PTG-4997 (metabolite) after PTG-630 PO 100 mg/kg, brain, 6 h postdose, individual animals): <BLQ
- PTG-4997 (metabolite) concentration (Table 2, for PTG-4997 (metabolite) after PTG-630 PO 100 mg/kg, brain, 24 h postdose, Mean): <BLQ
- PTG-4997 (metabolite) concentration (Table 2, for PTG-4997 (metabolite) after PTG-630 PO 100 mg/kg, brain, 24 h postdose, individual animals): <BLQ
- PTG-4997 (metabolite) concentration (Table 2, for PTG-4997 (metabolite) after PTG-630 PO 100 mg/kg, kidney, 0.5 h postdose, Mean): 86.5 ng/mL
- PTG-4997 (metabolite) concentration (Table 2, for PTG-4997 (metabolite) after PTG-630 PO 100 mg/kg, kidney, 1 h postdose, Mean): 0 ng/mL
- PTG-4997 (metabolite) concentration (Table 2, for PTG-4997 (metabolite) after PTG-630 PO 100 mg/kg, kidney, 2 h postdose, Mean): 81 ng/mL
- PTG-4997 (metabolite) concentration (Table 2, for PTG-4997 (metabolite) after PTG-630 PO 100 mg/kg, kidney, 4 h postdose, Mean): 128 ng/mL
- PTG-4997 (metabolite) concentration (Table 2, for PTG-4997 (metabolite) after PTG-630 PO 100 mg/kg, kidney, 6 h postdose, Mean): 182.5 ng/mL
- PTG-4997 (metabolite) concentration (Table 2, for PTG-4997 (metabolite) after PTG-630 PO 100 mg/kg, kidney, 24 h postdose, Mean): 106 ng/mL
- PTG-4997 (metabolite) concentration (Table 2, for PTG-4997 (metabolite) after PTG-630 PO 100 mg/kg, liver, 0.5 h postdose, Mean): <BLQ
- PTG-4997 (metabolite) concentration (Table 2, for PTG-4997 (metabolite) after PTG-630 PO 100 mg/kg, liver, 0.5 h postdose, individual animals): <BLQ
- PTG-4997 (metabolite) concentration (Table 2, for PTG-4997 (metabolite) after PTG-630 PO 100 mg/kg, liver, 1 h postdose, Mean): <BLQ
- PTG-4997 (metabolite) concentration (Table 2, for PTG-4997 (metabolite) after PTG-630 PO 100 mg/kg, liver, 1 h postdose, individual animals): <BLQ
- PTG-4997 (metabolite) concentration (Table 2, for PTG-4997 (metabolite) after PTG-630 PO 100 mg/kg, liver, 2 h postdose, Mean): <BLQ
- PTG-4997 (metabolite) concentration (Table 2, for PTG-4997 (metabolite) after PTG-630 PO 100 mg/kg, liver, 2 h postdose, individual animals): <BLQ
- PTG-4997 (metabolite) concentration (Table 2, for PTG-4997 (metabolite) after PTG-630 PO 100 mg/kg, liver, 4 h postdose, Mean): <BLQ
- PTG-4997 (metabolite) concentration (Table 2, for PTG-4997 (metabolite) after PTG-630 PO 100 mg/kg, liver, 4 h postdose, individual animals): <BLQ
- PTG-4997 (metabolite) concentration (Table 2, for PTG-4997 (metabolite) after PTG-630 PO 100 mg/kg, liver, 6 h postdose, Mean): <BLQ
- PTG-4997 (metabolite) concentration (Table 2, for PTG-4997 (metabolite) after PTG-630 PO 100 mg/kg, liver, 6 h postdose, individual animals): <BLQ
- PTG-4997 (metabolite) concentration (Table 2, for PTG-4997 (metabolite) after PTG-630 PO 100 mg/kg, liver, 24 h postdose, Mean): <BLQ
- PTG-4997 (metabolite) concentration (Table 2, for PTG-4997 (metabolite) after PTG-630 PO 100 mg/kg, liver, 24 h postdose, individual animals): <BLQ
- PTG-4997 (metabolite) concentration (Table 2, for PTG-4997 (metabolite) after PTG-630 PO 100 mg/kg, muscle, 0.5 h postdose, Mean): <BLQ
- PTG-4997 (metabolite) concentration (Table 2, for PTG-4997 (metabolite) after PTG-630 PO 100 mg/kg, muscle, 0.5 h postdose, individual animals): <BLQ
- PTG-4997 (metabolite) concentration (Table 2, for PTG-4997 (metabolite) after PTG-630 PO 100 mg/kg, muscle, 1 h postdose, Mean): <BLQ
- PTG-4997 (metabolite) concentration (Table 2, for PTG-4997 (metabolite) after PTG-630 PO 100 mg/kg, muscle, 1 h postdose, individual animals): <BLQ
